PubChem BioAssay AID1963976 (Molecular Pharmacology Branch, DTP, NCI, 2024)
One block for each compound: values may come before it.

Test system: 435261-313-R-J1-PDC tumor spheroid viability
Assay: Anticancer human tumor 435261-313-R-J1-PDC patient-derived colon adenocarcinoma cell line growth inhibition [PI3K]
Settings: spheroids with HUVEC and MSC; for IC50: curve of first compound; for viability, T/C: stronger effect = lower value
How it was run: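 Agents were dosed from a top concentration near clinical Cmax (otherwise 10 microM) in half-log decrements, alone or combined with PI3K inhibitors. The spheroids contain tumor cells plus endothelial (HUVEC) and MSC stroma; viability is measured.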

[1] = second compound 0.0316 µM, first compound 0.0316 µM
[2] = second compound 0.0316 µM, first compound 0.1 µM
[3] = second compound 0.0316 µM, first compound 0.316 µM
[4] = second compound 0.0316 µM, first compound 1 µM
[5] = second compound 0.0316 µM, first compound 3.16 µM
[6] = second compound 0.0316 µM, first compound 10 µM
[7] = second compound 0.1 µM, first compound 0.0316 µM
[8] = second compound 0.1 µM, first compound 0.1 µM
[9] = second compound 0.1 µM, first compound 0.316 µM
[10] = second compound 0.1 µM, first compound 1 µM
[11] = second compound 0.1 µM, first compound 3.16 µM
[12] = second compound 0.1 µM, first compound 10 µM
[13] = second compound 0.316 µM, first compound 0.0316 µM
[14] = second compound 0.316 µM, first compound 0.1 µM
[15] = second compound 0.316 µM, first compound 0.316 µM
[16] = second compound 0.316 µM, first compound 1 µM
[17] = second compound 0.316 µM, first compound 3.16 µM
[18] = second compound 0.316 µM, first compound 10 µM
[19] = second compound 1 µM, first compound 0.0316 µM
[20] = second compound 1 µM, first compound 0.1 µM
[21] = second compound 1 µM, first compound 0.316 µM
[22] = second compound 1 µM, first compound 1 µM
[23] = second compound 1 µM, first compound 3.16 µM
[24] = second compound 1 µM, first compound 10 µM
[25] = second compound 3.16 µM, first compound 0.0316 µM
[26] = second compound 3.16 µM, first compound 0.1 µM
[27] = second compound 3.16 µM, first compound 0.316 µM
[28] = second compound 3.16 µM, first compound 1 µM
[29] = second compound 3.16 µM, first compound 3.16 µM
[30] = second compound 3.16 µM, first compound 10 µM
[31] = second compound 10 µM, first compound 0.0316 µM
[32] = second compound 10 µM, first compound 0.1 µM
[33] = second compound 10 µM, first compound 0.316 µM
[34] = second compound 10 µM, first compound 1 µM
[35] = second compound 10 µM, first compound 3.16 µM
[36] = second compound 10 µM, first compound 10 µM
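Further: spheroids exposed to compounds for 7 days.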

IC50 (second compound 0.0316 µM): > 10000 nM
IC50 (second compound 0.1 µM): > 10000 nM
IC50 (second compound 0.316 µM): > 10000 nM
IC50 (second compound 1 µM): < 31.6 nM
IC50 (second compound 3.16 µM): < 31.6 nM
IC50 (second compound 10 µM): < 31.6 nM
Compound: C=CC(=O)N1CCN(c2nc(=O)n(-c3c(C)ccnc3C(C)C)c3nc(-c4c(O)cccc4F)c(F)cc23)C(C)C1 (stereo not drawn) + Cc1nc(NC(=O)N2CCCC2C(N)=O)sc1-c1ccnc(C(C)(C)C(F)(F)F)c1
viability, T/C [1]: 70.5%
viability, T/C [2]: 84%
viability, T/C [3]: 80.8%
viability, T/C [4]: 91.5%
viability, T/C [5]: 112%
viability, T/C [6]: 121%
viability, T/C [7]: 71.5%
viability, T/C [8]: 71.3%
viability, T/C [9]: 73.5%
viability, T/C [10]: 75%
viability, T/C [11]: 129%
viability, T/C [12]: 119%
viability, T/C [13]: 49.5%
viability, T/C [14]: 52.4%
viability, T/C [15]: 56.9%
viability, T/C [16]: 58.4%
viability, T/C [17]: 77.1%
viability, T/C [18]: 78.9%
viability, T/C [19]: 35.1%
viability, T/C [20]: 25.1%
viability, T/C [21]: 27.6%
viability, T/C [22]: 39.6%
viability, T/C [23]: 36.6%
viability, T/C [24]: 54.8%
viability, T/C [25]: 15.3%
viability, T/C [26]: 19.4%
viability, T/C [27]: 17.9%
viability, T/C [28]: 23%
viability, T/C [29]: 24.3%
viability, T/C [30]: 18.6%
viability, T/C [31]: 9.68%
viability, T/C [32]: 9.35%
viability, T/C [33]: 8.96%
viability, T/C [34]: 9.4%
viability, T/C [35]: 9.55%
viability, T/C [36]: 6.21%

IC50 (second compound 0.0316 µM): 579 nM
IC50 (second compound 0.1 µM): 400 nM
IC50 (second compound 0.316 µM): < 31.6 nM
IC50 (second compound 1 µM): < 31.6 nM
IC50 (second compound 3.16 µM): < 31.6 nM
IC50 (second compound 10 µM): < 31.6 nM
Compound: Cn1ncc(Cl)c1-c1cc(C(=O)NC(CN)Cc2cccc(F)c2)sc1Cl (stereo not drawn) + Cc1nc(NC(=O)N2CCCC2C(N)=O)sc1-c1ccnc(C(C)(C)C(F)(F)F)c1
viability, T/C [1]: 83.5%
viability, T/C [2]: 67.3%
viability, T/C [3]: 71.8%
viability, T/C [4]: 31.2%
viability, T/C [5]: 18.6%
viability, T/C [6]: 6.47%
viability, T/C [7]: 58.5%
viability, T/C [8]: 82%
viability, T/C [9]: 51.6%
viability, T/C [10]: 28.1%
viability, T/C [11]: 21.7%
viability, T/C [12]: 6.76%
viability, T/C [13]: 42.9%
viability, T/C [14]: 41%
viability, T/C [15]: 38%
viability, T/C [16]: 27.2%
viability, T/C [17]: 14.2%
viability, T/C [18]: 7.01%
viability, T/C [19]: 31.9%
viability, T/C [20]: 34.8%
viability, T/C [21]: 29.2%
viability, T/C [22]: 19.1%
viability, T/C [23]: 16.2%
viability, T/C [24]: 4.12%
viability, T/C [25]: 15.7%
viability, T/C [26]: 14.7%
viability, T/C [27]: 15.8%
viability, T/C [28]: 16.9%
viability, T/C [29]: 11.9%
viability, T/C [30]: 1.21%
viability, T/C [31]: 9.08%
viability, T/C [32]: 7.96%
viability, T/C [33]: 6.42%
viability, T/C [34]: 8.32%
viability, T/C [35]: 4.5%
viability, T/C [36]: 0.47%

IC50 (second compound 0.0316 µM): 147 nM
IC50 (second compound 0.1 µM): 119 nM
IC50 (second compound 0.316 µM): < 31.6 nM
IC50 (second compound 1 µM): < 31.6 nM
IC50 (second compound 3.16 µM): < 31.6 nM
IC50 (second compound 10 µM): < 31.6 nM
Compound: Cn1nccc1Nc1nccc(-c2ccn(C(CO)c3ccc(Cl)c(F)c3)c(=O)c2)n1 (stereo not drawn) + Cc1nc(NC(=O)N2CCCC2C(N)=O)sc1-c1ccnc(C(C)(C)C(F)(F)F)c1
viability, T/C [1]: 62.5%
viability, T/C [2]: 58.2%
viability, T/C [3]: 37%
viability, T/C [4]: 24.5%
viability, T/C [5]: 20.9%
viability, T/C [6]: 11.4%
viability, T/C [7]: 53.1%
viability, T/C [8]: 54.8%
viability, T/C [9]: 32.4%
viability, T/C [10]: 18.5%
viability, T/C [11]: 17.9%
viability, T/C [12]: 10.8%
viability, T/C [13]: 36%
viability, T/C [14]: 36.4%
viability, T/C [15]: 21.3%
viability, T/C [16]: 12.9%
viability, T/C [17]: 14%
viability, T/C [18]: 7.34%
viability, T/C [19]: 19.1%
viability, T/C [20]: 18.9%
viability, T/C [21]: 11.6%
viability, T/C [22]: 8%
viability, T/C [23]: 7.78%
viability, T/C [24]: 3.02%
viability, T/C [25]: 13.6%
viability, T/C [26]: 10.8%
viability, T/C [27]: 9.01%
viability, T/C [28]: 4.15%
viability, T/C [29]: 3.68%
viability, T/C [30]: 1.12%
viability, T/C [31]: 7.41%
viability, T/C [32]: 4.45%
viability, T/C [33]: 2.55%
viability, T/C [34]: 1.89%
viability, T/C [35]: 0.52%
viability, T/C [36]: 0.24%

IC50 (second compound 0.0316 µM): > 100 nM
IC50 (second compound 0.1 µM): > 100 nM
IC50 (second compound 0.316 µM): 6.18 nM
IC50 (second compound 1 µM): < 0.316 nM
IC50 (second compound 3.16 µM): < 0.316 nM
IC50 (second compound 10 µM): < 0.316 nM
Compound: Cn1ncnc1[C@H]1c2n[nH]c(=O)c3cc(F)cc(c23)N[C@@H]1c1ccc(F)cc1 + Cc1nc(NC(=O)N2CCCC2C(N)=O)sc1-c1ccnc(C(C)(C)C(F)(F)F)c1
viability, T/C (second compound 0.0316 µM, first compound 0.000316 µM): 81.6%
viability, T/C (second compound 0.0316 µM, first compound 0.001 µM): 65%
viability, T/C (second compound 0.0316 µM, first compound 0.00316 µM): 79.8%
viability, T/C (second compound 0.0316 µM, first compound 0.01 µM): 77.1%
viability, T/C [1]: 79.1%
viability, T/C [2]: 66.4%
viability, T/C (second compound 0.1 µM, first compound 0.000316 µM): 63%
viability, T/C (second compound 0.1 µM, first compound 0.001 µM): 93.9%
viability, T/C (second compound 0.1 µM, first compound 0.00316 µM): 65.5%
viability, T/C (second compound 0.1 µM, first compound 0.01 µM): 64.8%
viability, T/C [7]: 66.4%
viability, T/C [8]: 56.3%
viability, T/C (second compound 0.316 µM, first compound 0.000316 µM): 35.8%
viability, T/C (second compound 0.316 µM, first compound 0.001 µM): 62.8%
viability, T/C (second compound 0.316 µM, first compound 0.00316 µM): 49.4%
viability, T/C (second compound 0.316 µM, first compound 0.01 µM): 59.8%
viability, T/C [13]: 39.4%
viability, T/C [14]: 36.6%
viability, T/C (second compound 1 µM, first compound 0.000316 µM): 36.5%
viability, T/C (second compound 1 µM, first compound 0.001 µM): 29.8%
viability, T/C (second compound 1 µM, first compound 0.00316 µM): 24.6%
viability, T/C (second compound 1 µM, first compound 0.01 µM): 30.5%
viability, T/C [19]: 26.9%
viability, T/C [20]: 22.8%
viability, T/C (second compound 3.16 µM, first compound 0.000316 µM): 16.4%
viability, T/C (second compound 3.16 µM, first compound 0.001 µM): 21.4%
viability, T/C (second compound 3.16 µM, first compound 0.00316 µM): 17.5%
viability, T/C (second compound 3.16 µM, first compound 0.01 µM): 18.5%
viability, T/C [25]: 18.4%
viability, T/C [26]: 16.7%
viability, T/C (second compound 10 µM, first compound 0.000316 µM): 10.5%
viability, T/C (second compound 10 µM, first compound 0.001 µM): 9.23%
viability, T/C (second compound 10 µM, first compound 0.00316 µM): 7.91%
viability, T/C (second compound 10 µM, first compound 0.01 µM): 9.55%
viability, T/C [31]: 9%
viability, T/C [32]: 7.58%
